Assay results: patent US12291529B2, “Heterocyclic GLP-1 agonists” (Gasherbrum Bio, Inc., priority 2023, dated 2025)
Converted amounts (≈) assume the structure as drawn.

Key:
[1] = Caco-2 permeability / efflux study; assay type: in vitro ADME; details: human; for Papp at 2 h, 10 μM: Caco-2, pH 7.4, 10 μM, 37° C., pH 7.4, 0.5% BSA, read-out: Caco-2 Perm; for efflux ratio at 2 h, 10 μM: Caco-2, pH 7.4, Caco-2 efflux ratio
Experimental: (§1) Incubations with Caco-2 cell monolayers were performed in duplicate in a 96-well Transwell plate. Transport buffer solution (HBSS, 10 mM HEPES, pH 7.4, with 0.5% BSA) containing test article (10 μM), and either the control compounds metoprolol (10 μM), cimetidine (10 μM) and erythromycin (10 μM), was added to appropriate donor wells of the apical or basolateral plate. The transport buffer with DMSO was added to appropriate wells of receiver wells. Following incubation at 37° C. for 2 hours, the cell plates were removed and 50 μL samples from both apical and basolateral sides were transferred into new 96-well plates. Subsequently, 200 μL of acetonitrile containing internal standard was added to all samples to precipitate protein prior to analysis by UPLC-MS/MS. Lucifer yellow was used as a marker to confirm the integrity of the cell monolayers after 2 hours incubation.

FaSSIF solubility = assay type: physicochemical; details: FaSSIF buffer; for solubility at 4 h: 25 °C, fassif, thermodynamic from solid
Experimental: Stock solution of test article and control compound (chlorpromazine, astemizole, and phenytoin) were prepared in DMSO at 10 mM. 50 μL each of stock solutions were dried down, followed by reconstitution to 1 mM with FaSSIF buffer in the well. The incubation plate was shaked at 25° C., 1,100 rpm for 4 hours. And then, the samples were filtered by using the vacuum manifold. 10 μL aliquots from each well was transferred to a new 96-well plate and adjust the volume to 80 μL with blank buffer. Using a mixture of H2O and acetonitrile containing internal standard (1:1) to dilute the sample 100-fold, 500-fold and 2,500-fold. The samples are evaluated by LC/MS/MS analysis. All compounds were tested in singlet.

[2] = Rat IV/PO PK study, Method A; assay type: in vivo, male Sprague Dawley (SD) rats; details: for AUC (ng · h/mL)_free form/dose / AUC / Cmax: PO; for AUC (ng · h/mL)_free form/dose: 5 mpk, free form; for half-life / bioavailability / AUC / Cmax: male, Sprague Dawley, plasma; for half-life: 1 mg/kg, elimination half life (IV); for half-life / bioavailability: Method A; for bioavailability: PO vs IV, read-out: Bioavailablility (% F); for AUC / Cmax: 5 mg/kg, *obtained under method 3A
Experimental: Pharmacokinetics (PK) study was conducted on male Sprague Dawley (SD) rats by two delivery routes intravenous (IV) and/or oral gavage (PO). Rats in IV route (n=3) were free access to food and water. Rats in PO route (n=3) were fasted overnight and fed at 4 hrs post dosing. Test article was formulated in solution (10% solutol HS 15 in saline) for IV route and solution or suspension (10% solutol HS 15 in saline/water) for PO route, respectively. On the day of experiment, test article was administered via vein (e.g. foot dorsal vein) injection (commonly at 1 mg/kg and 5 mL/kg) for IV route or via oral gavage (commonly at 2 or 5 mg/kg and 5 mL/kg) for PO route, respectively. Blood samples were collected via serial bleeding at ˜8 time points from 0.083 to 24 hrs post dose. Approximate 150 μL of blood/time point was collected into K2EDTA tube via tail vein or jugular vein. Blood samples were put on wet ice and centrifuged to obtain plasma samples and plasma samples were submitted to LC-MS/MS for sample analysis. Pharmacokinetics parameters, including elimination half life (t1/2) (IV), area under the curve (AUC) and oral bioavailability (F %), etc. were calculated by non-compartmental model using WinNonlin.

[3] = Rat PO PK study, Method B; assay type: in vivo, male Sprague Dawley (SD) rats; details: for rat PK exposure compared with C-5 and C-6: 5 to 100 mg/kg; for rat PK dose proportionality of exposure: free form, same formulation; for AUC / Cmax: male, Sprague Dawley, plasma
Experimental: Pharmacokinetics (PK) study was conducted on male Sprague Dawley (SD) rats by oral gavage (PO). Rats in PO route (n=3) were free access to food and water. […] On the day of experiment, test article was administered via oral gavage (commonly at 10, 30, or 100 mg/kg, with dose volume as 10 mL/kg). Blood samples were collected via serial bleeding at ˜8 time points from 0.25 to 24 hrs post dose. Approximate 150 μL of blood/time point was collected into KzEDTA tube via tail vein or jugular vein. Blood samples were put on wet ice and centrifuged to obtain plasma samples and plasma samples were submitted to LC-MS/MS for sample analysis. Pharmiacokinetics parameters, including Cmax, and area under the curve (AUC), etc. were calculated by non-compartmental model using WinNonlin.

GLP-1 Receptor = GLP-1 Receptor (Homo sapiens, UniProt P43220); assay: GLP-1R agonist cAMP stimulation assay (HEK293/GLP1R/CRE-LUC cells, Cisbio cAMP dynamic 2 kit); assay type: cell-based
Method in brief: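 HEK293 cells stably expressing human GLP-1R with CRE-Luc reporter, 1000 cells/well in DPBS with 0.5 mM IBMX and BSA. Cells treated with compound (½-log dilutions) for 30 min at 37 °C. cAMP read by HTRF at 665/615 nm; % activity relative to vehicle and maximal control.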

Caco-2 cell monolayers = assay: Caco-2 permeability / efflux study; assay type: in vitro ADME; details: 10 μM, 2 hours; for Caco-2 Perm: 37° C., pH 7.4, 0.5% BSA
Experimental: as §1

[4] = 30 mg/kg, 20% solutol HS 15 in water
[5] = 100 mg/kg, 20% solutol HS 15 in water
[6] = Table 3, HEK293/GLP1R/CRE-LUC cells, 30 min

Chain of GLP-1 Receptor (P43220 24-463, species assumed): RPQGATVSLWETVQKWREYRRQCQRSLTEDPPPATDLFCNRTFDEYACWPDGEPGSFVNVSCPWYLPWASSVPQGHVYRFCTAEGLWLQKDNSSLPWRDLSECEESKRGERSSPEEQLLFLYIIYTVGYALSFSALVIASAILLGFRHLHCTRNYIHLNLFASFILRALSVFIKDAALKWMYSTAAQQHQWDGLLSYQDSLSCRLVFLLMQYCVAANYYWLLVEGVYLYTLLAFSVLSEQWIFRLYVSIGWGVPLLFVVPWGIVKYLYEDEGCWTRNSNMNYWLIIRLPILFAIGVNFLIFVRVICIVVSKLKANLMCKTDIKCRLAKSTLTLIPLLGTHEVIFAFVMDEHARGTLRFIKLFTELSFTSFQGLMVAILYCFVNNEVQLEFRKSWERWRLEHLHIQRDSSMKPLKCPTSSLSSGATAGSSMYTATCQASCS

Papp at 2 h, 10 μM [1]	efflux ratio at 2 h, 10 μM [1]	solubility at 4 h (FaSSIF solubility)	AUC (ng · h/mL)_free form/dose [2]	half-life [2]	bioavailability [2]	AUC [2]	Cmax [2]	rat PK exposure compared with C-5 and C-6 [3]	AUC [3, 4]	Cmax [3, 4]	AUC [3, 5]	Cmax [3, 5]	EC50 (GLP-1 Receptor; [6])	EC50 (GLP-1 Receptor; Table 4)	Caco-2 Perm (Caco-2 cell monolayers)	AUC ([3]; 30 mg/kg, 10% solutol HS 15)	Cmax ([3]; 30 mg/kg, 10% solutol HS 15)	AUC ([3]; 100 mg/kg, 10% solutol HS 15)	Structure (SMILES)	rat PK dose proportionality of exposure [3]	also measured
0.19 ×10⁻⁶ cm/s	9.8	26 µM (≈ 25.4 µg/mL)	4,997/5 mpk ng · h/mL	4.78 h	25.5%	7430 ng·h/mL	1060 ng/mL	higher exposure than C-5 and C-6	67500 ng·h/mL	4710 ng/mL	124000 ng·h/mL	8680 ng/mL	0.11 nM	0.11 nM					CN=S(=O)(c1ccc(-n2ccn(-c3c4c(nn3-c3cc(C)c(F)c(C)c3)CCN(C(=O)c3cc5cc([C@H]6CCOC(C)(C)C6)ccc5n3[C@@]3(c5noc(=O)[nH]5)C[C@@H]3C)[C@H]4C)c2=O)c(F)c1NC)C1CC1 (single isomer, unassigned) [Compound 238]	good rat PK dose proportionality from 5 to 100 mg/kg	
0.16 ×10⁻⁶ cm/s	26	4.5 µM (≈ 4.03 µg/mL)	4,276/5 mpk ng · h/mL	3.1 h	47%	4280 ng·h/mL	744 ng/mL							0.0675 nM		58800 ng·h/mL	7540 ng/mL	86000 ng·h/mL	Cc1cc(-n2nc3c(c2-n2ccn(-c4ccc5c(cnn5C)c4F)c2=O)[C@H](C)N(C(=O)c2cc4cc([C@H]5CCOC(C)(C)C5)ccn4c2C2(c4noc(=O)[nH]4)CC2)CC3)cc(C2CC2)c1F [Compound C-6, reference compound]		Cmax ([3]; 100 mg/kg, 10% solutol HS 15): 7480 ng/mL

The next lines start with the compound.

Structure (SMILES)	Papp at 2 h, 10 μM [1]	efflux ratio at 2 h, 10 μM [1]	solubility at 4 h (FaSSIF solubility)	AUC (ng · h/mL)_free form/dose [2]	half-life [2]	bioavailability [2]	AUC [2]	Cmax [2]	rat PK exposure compared with C-5 and C-6 [3]	AUC [3, 4]	Cmax [3, 4]	AUC [3, 5]	Cmax [3, 5]	EC50 (GLP-1 Receptor; [6])	EC50 (GLP-1 Receptor; Table 4)	Caco-2 Perm (Caco-2 cell monolayers)	AUC ([3]; 30 mg/kg, 10% solutol HS 15)	Cmax ([3]; 30 mg/kg, 10% solutol HS 15)	AUC ([3]; 100 mg/kg, 10% solutol HS 15)	rat PK dose proportionality of exposure [3]	also measured
Cc1cc(-n2nc3c(c2-n2ccn(-c4ccc(S5(=O)=NCCC5)cc4)c2=O)[C@H](C)N(C(=O)c2cc4cc(C5CCOCC5)ccc4n2[C@@]2(c4noc(=O)[nH]4)C[C@@H]2C)CC3)cc(C)c1F (single isomer, unassigned) [Compound 143]														0.019 nM	0.019 nM	0.12 ×10⁻⁶ cm/s					Efflux (Caco-2 cell monolayers; Caco-2 efflux ratio): 99.3; Solubility (FaSSIF, μM) (FaSSIF solubility; 25° C., 4 hours): 4.98 µM (≈ 4.41 µg/mL)
CN=S(=O)(c1ccc(-n2ccn(-c3c4c(nn3-c3cc(C)c(F)c(C)c3)CCN(C(=O)c3cc5cc([C@H]6CCOC(C)(C)C6)ccc5n3[C@@]3(c5noc(=O)[nH]5)C[C@@H]3C)[C@H]4C)c2=O)c(F)c1)C1CC1 (single isomer, unassigned) [Compound 180]	0.61 ×10⁻⁶ cm/s	5.4	30 µM (≈ 28.4 µg/mL)	4,954/5 mpk ng · h/mL	3 h	28%	6100 ng·h/mL	1790 ng/mL	higher exposure than C-5 and C-6					0.034 nM	0.03 nM		97000 ng·h/mL	8340 ng/mL	167000 ng·h/mL	good rat PK dose proportionality from 5 to 100 mg/kg	Cmax ([3]; 100 mg/kg, 10% solutol HS 15): 13300 ng/mL
CCS(=O)(=NC)c1ccc(-n2ccn(-c3c4c(nn3-c3cc(C)c(F)c(C)c3)CCN(C(=O)c3cc5cc([C@H]6CCOC(C)(C)C6)ccc5n3[C@@]3(c5noc(=O)[nH]5)C[C@@H]3C)[C@H]4C)c2=O)c(F)c1 (single isomer, unassigned) [Compound 164]	0.62 ×10⁻⁶ cm/s	5.5	8.9 µM (≈ 8.31 µg/mL)	6,094/5 mpk ng · h/mL	2.4 h	29.4%	9540 ng·h/mL	1880 ng/mL	higher exposure than C-5 and C-6	66200 ng·h/mL	5400 ng/mL	173000 ng·h/mL	11200 ng/mL	0.024 nM	0.024 nM					good rat PK dose proportionality from 5 to 100 mg/kg	
Cc1cc(-n2nc3c(c2-n2ccn(-c4ccc(S5(=O)=NCCC5)cc4)c2=O)[C@H](C)N(C(=O)c2cc4cc(C5CCOCC5)ccc4n2[C@@]2(c4noc(=O)[nH]4)C[C@@H]2C)CC3)cc(C)c1F (single isomer, unassigned) [Compound 142]		> 156	8.07 µM (≈ 7.15 µg/mL)											0.045 nM	0.063 nM	< 0.05 ×10⁻⁶ cm/s					
